Reference: BindingDB's records for doi:10.7270/Q2MP51PC (Pcmd, 2008)

Biological target: T1, Complement C1s subcomponent (Homo sapiens, UniProt P09871)
T1 sequence (P09871 whole entry): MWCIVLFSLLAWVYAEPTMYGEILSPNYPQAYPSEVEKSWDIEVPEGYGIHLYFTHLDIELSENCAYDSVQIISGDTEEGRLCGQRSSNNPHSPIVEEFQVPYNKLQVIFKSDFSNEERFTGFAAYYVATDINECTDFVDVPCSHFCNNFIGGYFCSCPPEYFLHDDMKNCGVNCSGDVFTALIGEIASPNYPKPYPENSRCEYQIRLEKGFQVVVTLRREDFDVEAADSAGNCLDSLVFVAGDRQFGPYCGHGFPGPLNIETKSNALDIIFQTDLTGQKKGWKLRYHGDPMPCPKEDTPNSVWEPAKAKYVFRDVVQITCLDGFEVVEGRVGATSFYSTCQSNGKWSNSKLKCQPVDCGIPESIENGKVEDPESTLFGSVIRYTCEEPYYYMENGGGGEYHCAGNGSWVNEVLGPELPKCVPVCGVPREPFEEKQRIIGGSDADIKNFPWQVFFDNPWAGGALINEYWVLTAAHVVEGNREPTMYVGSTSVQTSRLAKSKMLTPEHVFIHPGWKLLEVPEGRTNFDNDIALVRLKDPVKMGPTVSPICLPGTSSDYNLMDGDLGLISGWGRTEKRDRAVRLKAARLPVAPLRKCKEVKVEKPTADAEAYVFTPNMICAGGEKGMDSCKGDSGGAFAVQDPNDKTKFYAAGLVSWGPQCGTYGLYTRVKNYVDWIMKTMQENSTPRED
Assay: concentration-response of complement C1s inhibitors – biochemical, dose response (AID 787)

Compound | IC50 [µM]
CCOC(=O)c1ccc(CSc2nncn2N)o1 [5-[[(4-amino-1,2,4-triazol-3-yl)thio]methyl]-2-furancarboxylic acid ethyl ester] | > 50
N#Cc1cnn(CC2CCCCC2)c1N [5-amino-1-(cyclohexylmethyl)-4-pyrazolecarbonitrile] | > 50
Cc1cc(NC(=O)c2cc3nc(C4CC4)cc(C(F)(F)F)n3n2)no1 [5-cyclopropyl-N-(5-methyl-1,2-oxazol-3-yl)-7-(trifluoromethyl)pyrazolo[1,5-a]pyrimidine-2-carboxamide] | > 50
Cc1ccc(CCNC(=O)C2CCC(=O)N2Cc2cccnc2)cc1 (stereo not drawn) [5-keto-N-[2-(p-tolyl)ethyl]-1-(3-pyridylmethyl)pyrrolidine-2-carboxamide] | > 50
CCOc1cc2[nH]c(=S)n(CC3CCCO3)c(=O)c2cc1OCC (stereo not drawn) [6,7-diethoxy-3-(2-oxolanylmethyl)-2-sulfanylidene-1H-quinazolin-4-one] | > 50
O=C(Cn1c(=O)oc2cc(S(=O)(=O)N3CCc4ccccc43)ccc21)N1CCCCC1 [6-(2,3-dihydroindol-1-ylsulfonyl)-3-(2-oxidanylidene-2-piperidin-1-yl-ethyl)-1,3-benzoxazol-2-one] | > 50
CC(=O)c1cc2c(cc1NC(=O)C1CC=CCC1C(=O)O)OCO2 (stereo not drawn) [6-[(6-acetyl-1,3-benzodioxol-5-yl)carbamoyl]cyclohex-3-ene-1-carboxylic acid] | > 50
Cc1coc2c(C)c3oc(=O)c4c(c3cc12)CCCC4 [7,10-dimethyl-1,2,3,4-tetrahydro-[1]benzofuro[6,5-c]isochromen-5-one] | > 50
CCOc1ccc(C2CC(c3cccc(Cl)c3)n3nc(N)nc3N2)cc1 (stereo not drawn) [7-(3-chlorophenyl)-5-(4-ethoxyphenyl)-1,5,6,7-tetrahydro-[1,2,4]triazolo[1,5-a]pyrimidin-2-amine] | > 50
COc1cc(C(Nc2ccccn2)c2ccc3ccc(C)nc3c2O)cc(OC)c1O (stereo not drawn) [7-[(3,5-dimethoxy-4-oxidanyl-phenyl)-(pyridin-2-ylamino)methyl]-2-methyl-quinolin-8-ol] | > 50
Cc1nnc(SC(=O)N2c3ccccc3Sc3ccccc32)s1 [10-phenothiazinecarbothioic acid S-(5-methyl-1,3,4-thiadiazol-2-yl) ester] | > 50
COc1ccc(Nc2cc(C)nc3nc(C)nn23)c(OC)c1 [(2,4-dimethoxyphenyl)-(2,5-dimethyl-[1,2,4]triazolo[1,5-a]pyrimidin-7-yl)amine] | > 50
COc1ccccc1Nc1nc(-c2cccs2)cs1 [(2-methoxyphenyl)-[4-(2-thienyl)thiazol-2-yl]amine] | > 50
COc1ccc(CC(=O)OCc2cc3ccccc3[nH]c2=O)cc1 [(2-oxidanylidene-1H-quinolin-3-yl)methyl 2-(4-methoxyphenyl)ethanoate] | > 50
COc1ccc(C(=O)n2nc(-c3ccco3)nc2SC)cc1OC [(3,4-dimethoxyphenyl)-[3-(2-furanyl)-5-(methylthio)-1,2,4-triazol-1-yl]methanone] | 2.37
Cc1noc(C)c1COC(=O)c1ccccc1NC(=O)Cc1ccccc1 [(3,5-dimethyl-1,2-oxazol-4-yl)methyl 2-(2-phenylethanoylamino)benzoate] | > 50
COc1ccc(C(=O)n2ccc(C)n2)cc1Br [(3-bromanyl-4-methoxy-phenyl)-(3-methylpyrazol-1-yl)methanone] | > 50
Oc1cccc(C(=S)N2CCN(Cc3ccccc3)CC2)c1 [(3-hydroxyphenyl)-[4-(phenylmethyl)-1-piperazinyl]methanethione] | > 50
CCCS(=O)(=O)N1CCC(C(=O)N2CCN(Cc3ccccc3)CC2)CC1 [(4-benzylpiperazin-1-yl)-(1-propylsulfonylpiperidin-4-yl)methanone] | > 50
CCN1CCN(C=Nc2nc3c(s2)CCCC3)CC1 [(4-ethylpiperazino)methylene-(4,5,6,7-tetrahydro-1,3-benzothiazol-2-yl)amine] | > 50
COc1ccc(C(=O)OCn2nnc3ccccc3c2=O)cc1OC [(4-oxidanylidene-1,2,3-benzotriazin-3-yl)methyl 3,4-dimethoxybenzoate] | > 50

Compound | IC50 [µM]
Cc1cccc(COc2ccc(C(=O)C3C(=O)C(=O)N(CCN(C)C)C3c3ccncc3)cc2)c1 (stereo not drawn) [(4E)-1-[2-(dimethylamino)ethyl]-4-[[4-[(3-methylphenyl)methoxy]phenyl]-oxidanyl-methylidene]-5-pyridin-4-yl-pyrrolidine-2,3-dione] | > 50
Nc1nc(C(=O)N2CCOCC2)nn1C(=O)c1ccc(Cl)cc1 [(5-azanyl-3-morpholin-4-ylcarbonyl-1,2,4-triazol-1-yl)-(4-chlorophenyl)methanone] | 12.1
CC1CNC(=Nc2cccc3ccccc23)S1 (stereo not drawn) [(5-methyl-2-thiazolin-2-yl)-(1-naphthyl)amine] | > 50
CCOC(=O)N1CCC2=C(C#N)C(=N)C(C#N)(C#N)[C@H](c3ccccc3OCC)[C@H]2C1 [(8R,8aR)-6-amino-5,7,7-tricyano-8-(2-ethoxyphenyl)-1,3,8,8a-tetrahydroisoquinoline-2-carboxylic acid ethyl ester] | > 50
CNC=C1C(=O)C(C)(C)Oc2ccc3ccc(=O)oc3c21 [(10Z)-8,8-dimethyl-10-(methylaminomethylene)pyrano[2,3-f]chromene-2,9-quinone] | > 50
COC(=O)c1ccc(OC(=O)c2ccco2)cc1 [Furan-2-carboxylic acid 4-methoxycarbonyl-phenyl ester] | 17.1
CCC(=O)Oc1ccc(C(CC)C(CC)c2ccc(OC(=O)CC)cc2)cc1 (stereo not drawn) [HEXESTROL DIPROPIONATE] | > 50
O=C1CS/C(=N\c2ccc(O)cc2)N1c1ccc(O)cc1 [MLS000027731] | > 50
COc1cc(NC(=O)c2cccs2)c(OC)cc1NC(=O)CCn1nnc2ccccc21 [MLS000027885] | > 50
COc1ccc(S(=O)(=O)n2nc(OC(=O)c3ccco3)cc2N)cc1 [MLS000033887] | 11.3
O=c1cc(-c2ccccc2)[nH]c2nc(-c3ccccc3)nn12 [MLS000037061] | > 50
O=C(NC1CCS(=O)(=O)C1)c1cccc(S(=O)(=O)N2CCCCC2)c1 (stereo not drawn) [MLS000049608] | > 50
COc1ccc(NC(=O)C2CCC(=O)N2S(=O)(=O)c2ccc(C)cc2)c(OC)c1 (stereo not drawn) [MLS000050140] | > 50
Cc1csc(NC(=O)c2cccc(S(=O)(=O)N3CCCCC3)c2)n1 [MLS000058185] | > 50
COc1ccc(NC(=O)c2cccs2)cc1OC [MLS000058874] | > 50
O=C(Nc1ccc(Cl)cc1)c1ccc2c(c1)OCO2 [MLS000062068] | > 50
O=C(NC1CCCC1)c1cccc(S(=O)(=O)N2CCCCC2)c1 [MLS000065413] | > 50
O=C(NCc1ccco1)c1cccc(S(=O)(=O)N2CCCCC2)c1 [MLS000065416] | > 50
O=C(c1csc2ccccc12)n1cccn1 [MLS000065687] | 14.9
Cc1ccc(NS(=O)(=O)c2cc(C(=O)N3CCOCC3)ccc2C)cc1C [MLS000066131] | > 50
CCCCC(=O)Nc1ccc(NC(=O)c2cccnc2)cn1 [MLS000068397] | > 50

Compound | IC50 [µM]
O=C(c1ccco1)N1CCN(S(=O)(=O)c2ccc(S(=O)(=O)NC3CCCCC3)cc2)CC1 [MLS000068710] | > 50
O=C(N1CCOCC1)C12CCC3CC(CC(C3)C1)C2 [MLS000071057] | > 50
O=C(Nc1ccc2oc(=O)ccc2c1)c1cccnc1 [MLS000075075] | > 50
COc1ccc(Cl)cc1NC(=O)CCN1CCN(c2ccccc2C)CC1 [MLS000075926] | > 50
O=C(Nc1cc(Cl)ccc1N1CCOCC1)c1cnccn1 [MLS000076142] | > 50
COc1cccc(NC(=O)CCP(C)(=O)O)c1 [MLS000079835] | > 50
CCC(=O)Nc1ccc(C(=O)Nc2ccc3c(c2)OCO3)cc1 [MLS000085289] | > 50
CC1(C)COCN1S(=O)(=O)c1ccc(C(=O)Nc2nnc(-c3ccc(Cl)s3)o2)cc1 [MLS000086346] | > 50
O=C(NCCc1ccccc1)c1noc2c1CCc1ccccc1-2 [MLS000087424] | 14
CCCN(c1nc(C)cc(OC)n1)S(=O)(=O)c1ccccc1 [MLS000087928] | > 50
COc1ccc(S(=O)(=O)N2CCOCC2)cc1C(=O)Nc1nc2ccccc2s1 [MLS000088961] | > 50
Cc1cc(=O)[nH]c(SCC(=O)c2ccc(C(C)C)cc2)n1 [MLS000089861] | > 50
CCC(=O)Nc1cccc(-c2nc3ccccc3c(=O)o2)c1 [MLS000090237] | 34.7
CCc1ccccc1N(C(=O)c1cccs1)C1C=CS(=O)(=O)C1 (stereo not drawn) [MLS000093437] | > 50
CCCCC(=O)Nc1ccc(NC(=O)c2ccc3c(c2)OCO3)cc1OC [MLS000097195] | > 50
CCc1cc(=O)oc2cc(C)cc(OC(=O)c3ccco3)c12 [MLS000099547] | 10.1
COc1cc(C)nc(NS(=O)(=O)c2ccccc2)n1 [MLS000100375] | > 50
CC(=O)Nc1ccc(NC(C)=O)s1 [MLS000105054] | > 50
O=C1CCCC(=O)C1=CNCCc1ccccc1 [MLS000108318] | > 50
Cc1csc(NC(=O)c2ccco2)n1 [MLS000108918] | > 50
COc1ccccc1CNC(=O)C1COc2ccccc2O1 (stereo not drawn) [MLS000110123] | > 50
